The values that follow come from BindingDB's records for patent US11958871 (Fraunhofer-Gesellschaft Zur Forderung Der Angewandten …, 2024).

What is called Ki is the equilibrium dissociation constant of an inhibitor or competing ligand from its target. High values mean weaker binding, low ones tighter binding.

The target in assay [1] is T1, Glutamine cyclotransferase-related protein (Porphyromonas gingivalis (strain ATCC BAA-308 / W83), UniProt Q7MT37).
T1 sequence (Q7MT37 whole entry): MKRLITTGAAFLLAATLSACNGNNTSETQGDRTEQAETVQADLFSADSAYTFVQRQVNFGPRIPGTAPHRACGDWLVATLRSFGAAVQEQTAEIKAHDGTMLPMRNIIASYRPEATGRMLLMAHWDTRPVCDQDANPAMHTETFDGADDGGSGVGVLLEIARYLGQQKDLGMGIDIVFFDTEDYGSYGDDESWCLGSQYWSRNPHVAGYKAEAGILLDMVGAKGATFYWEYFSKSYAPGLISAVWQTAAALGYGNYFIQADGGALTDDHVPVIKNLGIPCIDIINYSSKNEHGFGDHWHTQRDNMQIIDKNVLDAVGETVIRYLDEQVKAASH
The assay is described as follows: Inhibition of Glutaminyl Cyclases. As to the method: For inhibitor testing, the sample composition was the same as described above, except for the addition of the putative inhibitory compound. […] Inhibitory constants were determined using different concentration of H-Gln-AMC varying from Km-2 Km. Final concentration of bacterial QC was in a range between 25 nM-50 nM.

Assay [2] deals with Glutaminyl-peptide cyclotransferase (Homo sapiens, UniProt Q16769).
Sequence of Glutaminyl-peptide cyclotransferase (Q16769 whole entry, the tested form may be a part): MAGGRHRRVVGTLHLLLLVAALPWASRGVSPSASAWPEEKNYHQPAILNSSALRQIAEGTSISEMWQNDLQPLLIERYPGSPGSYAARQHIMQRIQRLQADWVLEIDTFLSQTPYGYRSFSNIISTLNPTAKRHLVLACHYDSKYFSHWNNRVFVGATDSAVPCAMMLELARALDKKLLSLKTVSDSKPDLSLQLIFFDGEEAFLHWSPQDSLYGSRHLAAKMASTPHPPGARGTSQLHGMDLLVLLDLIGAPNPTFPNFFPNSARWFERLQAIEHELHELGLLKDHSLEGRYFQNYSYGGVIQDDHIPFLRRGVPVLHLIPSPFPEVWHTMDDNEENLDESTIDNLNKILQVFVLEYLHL
For assay [3], the target named is T2, Peptidase M28 domain-containing protein (Prevotella nigrescens CC14M, UniProt V8CNC2).
T2 sequence (V8CNC2 whole entry): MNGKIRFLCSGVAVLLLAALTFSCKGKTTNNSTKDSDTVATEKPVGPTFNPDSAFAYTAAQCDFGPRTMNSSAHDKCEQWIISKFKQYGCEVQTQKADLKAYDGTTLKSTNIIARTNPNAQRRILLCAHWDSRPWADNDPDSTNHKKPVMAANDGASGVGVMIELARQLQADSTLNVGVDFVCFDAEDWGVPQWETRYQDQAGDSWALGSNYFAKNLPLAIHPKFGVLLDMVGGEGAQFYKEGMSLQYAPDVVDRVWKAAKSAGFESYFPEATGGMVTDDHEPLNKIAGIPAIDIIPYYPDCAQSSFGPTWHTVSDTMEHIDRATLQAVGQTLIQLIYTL

In assay [4] the target is T3, Peptidase, M28 family (Tannerella forsythia (strain ATCC 43037 / JCM 10827 / CCUG 21028 A / KCTC 5666 / FDC 338), UniProt G8UMP8).
T3 sequence (G8UMP8 whole entry): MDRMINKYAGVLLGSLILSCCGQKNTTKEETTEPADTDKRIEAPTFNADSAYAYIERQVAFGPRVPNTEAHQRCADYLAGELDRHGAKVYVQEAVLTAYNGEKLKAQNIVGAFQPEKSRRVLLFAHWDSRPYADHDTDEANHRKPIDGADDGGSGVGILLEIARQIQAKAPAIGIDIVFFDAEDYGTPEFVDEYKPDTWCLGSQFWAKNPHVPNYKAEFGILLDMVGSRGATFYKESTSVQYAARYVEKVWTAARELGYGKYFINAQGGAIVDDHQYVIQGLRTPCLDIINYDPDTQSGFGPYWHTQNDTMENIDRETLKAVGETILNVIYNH

As to `Fc1cc(CNc2cnc3[nH]cnc3c2)cc(F)c1F` [US11958871, Example 3], in assay [1], the Ki was 157 nM.
Turning to `c1nc2cc(NCc3ccc4c(c3)OCCO4)cnc2[nH]1` [US11958871, Example 12], the inhibitory constant (Ki) in assay [2] came to 543 nM; in assay [3] it was 728 nM; in assay [1], 44 nM; in assay [4], 680 nM.
As to `c1ccc(CNc2cnc3[nH]cnc3c2)cc1` [US11958871, Example 2], the Ki in assay [2] was determined as 1280 nM; in assay [1] it was 149 nM; in assay [4] it was 1400 nM.
On to `c1cc(CNc2cnc3[nH]cnc3c2)cc(N2CCCCC2)c1` [US11958871, Example 9], for which the affinity in assay [1] corresponds to a Ki of 442 nM.
For `NCCOc1ccc(CNc2cnc3[nH]cnc3c2)cc1` [US11958871, Example 16], the results for the Ki in assay [2], in assay [1] and in assay [4] were 1070 nM, 30 nM and 317 nM, respectively.
Regarding `COc1ccc(CNc2cnc3[nH]cnc3c2)cc1OC` [US11958871, Example 13], the Ki in assay [2] amounted to 556 nM; in assay [1] it was 133 nM.
In the case of `c1cncc(CNc2cnc3[nH]cnc3c2)c1` [US11958871, Example 11], in assay [1], the affinity corresponds to a Ki of 139 nM.
On the same count and under the same terms, as for `CCCOc1ccc(CNc2cnc3[nH]cnc3c2)cc1` [US11958871, Example 15], the figure is 34 nM; as for `c1ccc(CNc2cnc3[nH]cnc3c2)nc1` [US11958871, Example 10], 395 nM.
Still for that read-out and setting: as for `COc1ccc(CNc2cnc3[nH]cnc3c2)cc1` [US11958871, Example 7], the figure is 83 nM.
In assay [3], `c1ccc(CNc2ccc3nc[nH]c3n2)cc1` [US11958871, Example 1] showed an inhibitory constant (Ki) of 9400 nM.
For `Clc1cccc(CNc2cnc3[nH]cnc3c2)c1` [US11958871, Example 5], the inhibitory constant (Ki) in assay [2] amounted to 769 nM; in assay [1], 106 nM.
In the case of `COc1cccc(CNc2cnc3[nH]cnc3c2)c1` [US11958871, Example 6], the inhibitory constant (Ki) in assay [2] was found to be 599 nM; in assay [1], 77 nM.
As for `Clc1ccc(CNc2cnc3[nH]cnc3c2)cc1Cl` [US11958871, Example 14], the Ki in assay [2] amounted to 431 nM; in assay [1], 53 nM; in assay [4], 358 nM.
`c1nc2cc(NCc3ccsc3)cnc2[nH]1` [US11958871, Example 8]: the Ki in assay [2] was found to be 1870 nM; in assay [1], 185 nM.
